Results as given in US20210228566A1, “METHODS OF TREATING A NEUROLOGICAL OR PSYCHIATRIC DISORDER” (priority 2018, published 2021).

Key:
human VMAT1 transporter = molecular target: T1, human VMAT1 transporter (Homo sapiens, UniProt P54219); experiment: uptake in cells expressing VMAT1; assay type: cell-based; details: for inhibitory activity on uptake through VMAT1: concentrations up to 10 μM
T1 construct: expressed in transfected cells
T1 sequence (P54219 1-525): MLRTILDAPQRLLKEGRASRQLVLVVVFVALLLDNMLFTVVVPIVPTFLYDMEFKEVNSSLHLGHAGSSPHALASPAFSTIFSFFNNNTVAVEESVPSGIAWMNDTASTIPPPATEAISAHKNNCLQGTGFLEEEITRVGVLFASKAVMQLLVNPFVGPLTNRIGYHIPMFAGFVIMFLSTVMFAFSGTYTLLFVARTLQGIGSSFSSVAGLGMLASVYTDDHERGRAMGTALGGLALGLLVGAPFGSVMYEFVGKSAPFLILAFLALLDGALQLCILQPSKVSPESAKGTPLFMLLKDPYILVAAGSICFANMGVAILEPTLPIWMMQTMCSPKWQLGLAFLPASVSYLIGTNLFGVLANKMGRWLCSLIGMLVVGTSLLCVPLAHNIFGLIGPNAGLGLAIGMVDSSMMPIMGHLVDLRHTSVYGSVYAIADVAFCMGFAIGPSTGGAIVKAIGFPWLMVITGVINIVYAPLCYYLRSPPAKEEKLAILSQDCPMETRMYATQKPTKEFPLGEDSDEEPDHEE
Method: None of the TBZ or VBZ metabolites had any affinity for the monoamine transporters DAT, SERT or NET. To complete the selectivity profile for VMAT2, the functional activity for the human VMAT1 transporter of these compounds was tested in cells expressing VMAT1.

[1] = ptosis, in vivo surrogate measure
[2] = case reports of hypersensitivity and dermatological reactions; assay type: in vivo, human
Source text: A total of 17 cases of hypersensitivity reaction and/or dermatological findings and evidence for possible causal relationship with VBZ have been reported either spontaneously (6) or after solicitation (11). Of these 17 cases, 14 cases had both hypersensitivity reaction with dermatological findings (5 were serious and 9 were non-serious).
In these 14 cases, there was a reasonable temporal relationship between the initiation of the drug and the onset of events. In 1 case, both dechallenge and rechallenge was positive. In 2 cases, the events worsened when the drug was continued and the events resolved on discontinuation of VBZ. In 3 cases, dechallenge was considered as positive. In 7 cases, the event resolved or was resolving following discontinuation of drug and receiving appropriate treatment, implying a causal association. Additionally, among these 7 cases, there was 1 case in which the event re-occurred on readministration of the drug. In the remaining 1 case, the events started immediately after starting VBZ, the subject continued taking VBZ and the event continued; therefore, a causal association between the drug and the event could not be ruled out.
Of the 17 cases, there were 2 cases in which the patients experienced hypersensitivity reaction with evidence for a possible causal relationship with VBZ, but without dermatological findings. Both these cases were non-serious. In 1 case, dechallenge was positive and in another case, the event re-occurred with their second dose of drug, implying a causal association between the drug and the events.
Of the 17 cases, there was 1 case in which the patient experienced only dermatological findings with evidence for a possible causal relationship to VBZ, but without evidence of other hypersensitivity reaction. This case was non-serious and dechallenge was positive in this case. In view of the information reported in these 17 cases there appears to be a possible causal relationship between the events and administration of VBZ. […] 2017.
Based on the case reports received through 10 Oct.

[3] = prolactin release, in vivo surrogate measure
[4] = plasma concentrations of circulating metabolites; assay type: in vivo; details: after VBZ

Row | inhibitory activity on uptake through VMAT1 (human VMAT1 transporter) | non-serious cases with hypersensitivity reaction and dermatological findings ([2]; of the 14 cases) | serious cases with hypersensitivity reaction and dermatological findings ([2]; of the 14 cases) | cases with both hypersensitivity reaction with dermatological findings ([2]; of the 17 cases) | cases of hypersensitivity reaction without dermatological findings ([2]; of the 17 cases, non-serious) | cases with only dermatological findings ([2]; of the 17 cases, non-serious) | cases of hypersensitivity reaction and/or dermatological findings with evidence for possible causal relationship ([2]; reported spontaneously (6) or after solicitation (11), through 10 Oct. 2017) | SMILES | effect on uptake through VMAT1 (human VMAT1 transporter) | ptosis [1] | severe hypersensitivity or dermatological reactions suggesting Stevens Johnson Syndrome, Toxic Epidermal Necrolysis, or Drug Rash with Eosinophilia and Systemic Symptoms ([2]; through 10 Oct. 2017) | serum prolactin levels [3] | plasma half-life of metabolite [4]
1 | no significant inhibitory activity |  |  |  |  |  |  | COc1cc2c(cc1OC)C1CC(=O)C(CC(C)C)CN1CC2 (stereo not shown) [TBZ, Tetrabenazine, reference compound] | no significant effect on the uptake of monoamines through VMAT1 | induced ptosis in an equivalent manner |  |  | 
2 | no significant inhibitory activity | 9 cases | 5 cases | 14 cases | 2 cases | 1 case | 17 cases | COc1cc2c(cc1OC)[C@H]1C[C@@H](OC(=O)[C@@H](N)C(C)C)[C@H](CC(C)C)CN1CC2 [Valbenazine, (S)-2-amino-3-methyl-butyric acid (2R, 3R,11bR)-3-isobutyl-9,10-dimethoxy-1,3,4,6,7,11b-hexahydro-2H-pyrido[2,1-a]isoquinolin-2-yl ester] | no significant effect on the uptake of monoamines through VMAT1 | induced ptosis in an equivalent manner | no cases |  | 
3 |  |  |  |  |  |  |  | COC(=O)[C@H]1[C@H]2C[C@@H]3c4[nH]c5cc(OC)ccc5c4CCN3C[C@H]2C[C@@H](OC(=O)c2cc(OC)c(OC)c(OC)c2)[C@@H]1OC [reserpine, reference compound] | substantially inhibited uptake through VMAT1 |  |  |  | 
4 | no significant inhibitory activity |  |  |  |  |  |  | COc1cc2c(cc1OC)[C@H]1C[C@@H](OC(=O)[C@@H](N)C(C)(C)O)[C@H](CC(C)C)CN1CC2 [NBI-136110] | no significant effect on the uptake of monoamines through VMAT1 |  |  |  | half-lives similar to VBZ

Row | SMILES | inhibitory activity on uptake through VMAT1 (human VMAT1 transporter) | non-serious cases with hypersensitivity reaction and dermatological findings ([2]; of the 14 cases) | serious cases with hypersensitivity reaction and dermatological findings ([2]; of the 14 cases) | cases with both hypersensitivity reaction with dermatological findings ([2]; of the 17 cases) | cases of hypersensitivity reaction without dermatological findings ([2]; of the 17 cases, non-serious) | cases with only dermatological findings ([2]; of the 17 cases, non-serious) | cases of hypersensitivity reaction and/or dermatological findings with evidence for possible causal relationship ([2]; reported spontaneously (6) or after solicitation (11), through 10 Oct. 2017) | effect on uptake through VMAT1 (human VMAT1 transporter) | ptosis [1] | severe hypersensitivity or dermatological reactions suggesting Stevens Johnson Syndrome, Toxic Epidermal Necrolysis, or Drug Rash with Eosinophilia and Systemic Symptoms ([2]; through 10 Oct. 2017) | serum prolactin levels [3] | plasma half-life of metabolite [4]
5 | COc1cc2c(cc1OC)[C@H]1C[C@@H](O)[C@H](CC(C)C)CN1CC2 [R,R,R-DHTBZ, (2R, 3R,11bR)-3-isobutyl-9,10-dimethoxy-1,3,4,6,7,11b-hexahydro-2H-pyrido[2,1-a]isoquinolin-2-ol] | no significant inhibitory activity |  |  |  |  |  |  | no significant effect on the uptake of monoamines through VMAT1 | induced ptosis in an equivalent manner |  | induced a similar increase in serum prolactin levels as TBZ | half-lives similar to VBZ
